What was measured:
Settings in all cases: 48 h
NOMO1 [1] = test: cell viability relative to DMSO control; higher = less cytotoxic
Procedure, shortened: (§1)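 Viability, reported as a per-plate percentage of DMSO wells with cell-free wells as background, came from CellTiter-Glo One luminescence. Reading took place after 48 h at 37°C. Before that, NOMO1 or SEM (500 cells/well) or P12-Ichikawa (1000 cells/well) leukemia cells, adapted for at least four passages in each medium, were seeded in 1536-well plates (5 μl) and pin-dosed with library compounds in DMSO, 47 μM to 0.79 nM over 11 threefold points.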

P12-Ichikawa [2] = test: as above
Procedure, shortened: as §1

SEM cells [3] = test: as above
Procedure, shortened: as §1

SEM cells [4] = test: AUC of viability dose-response curve (% viability x log10 dose units); higher = less sensitive
Procedure, shortened: (§2)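 Leukemia cells adapted to each medium were seeded in 1536-well plates (500 or 1000 cells/well) and given library compounds in DMSO for 48 h at 37°C. The 11 threefold doses spanned 47 μM to 0.79 nM, and CellTiter-Glo One luminescence was normalised per plate to DMSO and cell-free wells before four-parameter log-logistic fitting on log10 dose. Area under the curve was integrated with the trapezoidal rule, scaling curves above full viability and removing curves that failed quality control.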

NOMO1 [5] = test: as above
Procedure, shortened: as §2

P12-Ichikawa [6] = test: as above
Procedure, shortened: as §2

N#C/N=C(\NCCCCCCOc1ccc(Cl)cc1)Nc1ccncc1
cell viability [%]
Settings	NOMO1 [1]	P12-Ichikawa [2]	SEM cells [3]
HPLM + 10% dialyzed FBS, 0.000781 µM	49.3	92.5	18.5
HPLM + 10% dialyzed FBS, 0.00234 µM	47.6	30.8	14.6
HPLM + 10% dialyzed FBS, 0.00702 µM	19.9	7.9	11.7
HPLM + 10% dialyzed FBS, 0.0211 µM	15.5	7.51	11.6
HPLM + 10% dialyzed FBS, 0.0632 µM	12.6	7.45	10.7
HPLM + 10% dialyzed FBS, 0.19 µM	11.9	6.55	9.6
HPLM + 10% dialyzed FBS, 0.569 µM	9.75	6.06	9.68
HPLM + 10% dialyzed FBS, 1.71 µM	9.76	4.77	8.04
HPLM + 10% dialyzed FBS, 5.12 µM	9.75	5.75	7.4
HPLM + 10% dialyzed FBS, 15.4 µM	8.47	5.32	6.52
HPLM + 10% dialyzed FBS, 46.1 µM	6.05	2.54	4.48
RPMI 5 mM glucose + 10% FBS, 0.000781 µM	61	101	11
RPMI 5 mM glucose + 10% FBS, 0.00234 µM	41.9	66.3	12.1
RPMI 5 mM glucose + 10% FBS, 0.00702 µM	22	8.62	9.46
RPMI 5 mM glucose + 10% FBS, 0.0211 µM	19.2	9.03	9.27
RPMI 5 mM glucose + 10% FBS, 0.0632 µM	15.7	8.69	8.63
RPMI 5 mM glucose + 10% FBS, 0.19 µM	9.97	8.93	8.09
RPMI 5 mM glucose + 10% FBS, 0.569 µM	11.4	8.18	6.61
RPMI 5 mM glucose + 10% FBS, 1.71 µM	8.82	6.73	4.33
RPMI 5 mM glucose + 10% FBS, 5.12 µM	9.25	5.76	4.15
RPMI 5 mM glucose + 10% FBS, 15.4 µM	8.91	5.53	3.83
RPMI 5 mM glucose + 10% FBS, 46.1 µM	6.02	3.94	1.91
RPMI 5 mM glucose + 10% dialyzed FBS, 0.000781 µM	81.6	117	15
RPMI 5 mM glucose + 10% dialyzed FBS, 0.00234 µM	58.1	45.9	11
RPMI 5 mM glucose + 10% dialyzed FBS, 0.00702 µM	26.1	8.98	9.5
RPMI 5 mM glucose + 10% dialyzed FBS, 0.0211 µM	21	8.5	8.99
RPMI 5 mM glucose + 10% dialyzed FBS, 0.0632 µM	12.5	8.43	8.27
RPMI 5 mM glucose + 10% dialyzed FBS, 0.19 µM	12.2	8.45	8.14
RPMI 5 mM glucose + 10% dialyzed FBS, 0.569 µM	9.8	8.57	7.35
RPMI 5 mM glucose + 10% dialyzed FBS, 1.71 µM	8.26	6.65	6.51
RPMI 5 mM glucose + 10% dialyzed FBS, 5.12 µM	7.27	6.26	5.93
RPMI 5 mM glucose + 10% dialyzed FBS, 15.4 µM	6.87	5.72	4.36
RPMI 5 mM glucose + 10% dialyzed FBS, 46.1 µM	5.38	2.79	2.76

SEM cells [4]
Settings	AUC of viability dose-response curve
HPLM + 10% dialyzed FBS	48.4
RPMI 5 mM glucose + 10% FBS	34.6
RPMI 5 mM glucose + 10% dialyzed FBS	38

COc1cc2c(Oc3ccc4[nH]c(C)cc4c3F)ncnc2cc1OCCCN1CCCC1
AUC of viability dose-response curve
Settings	NOMO1 [5]	P12-Ichikawa [6]	SEM cells [4]
HPLM + 10% dialyzed FBS	453	448	382
RPMI 5 mM glucose + 10% FBS	452	449	380
RPMI 5 mM glucose + 10% dialyzed FBS	463	448	356

Cc1onc(-c2ccccc2)c1C(=O)N[C@@H]1C(=O)N2[C@@H]1SC(C)(C)[C@@H]2C(=O)[O-].[Na+]
cell viability [%]
Settings	NOMO1 [1]	P12-Ichikawa [2]	SEM cells [3]
HPLM + 10% dialyzed FBS, 0.000781 µM	120	109	85.9
HPLM + 10% dialyzed FBS, 0.00234 µM	131	116	75.7
HPLM + 10% dialyzed FBS, 0.00702 µM	105	120	87.2
HPLM + 10% dialyzed FBS, 0.0211 µM	113	108	84
HPLM + 10% dialyzed FBS, 0.0632 µM	134	116	86.5
HPLM + 10% dialyzed FBS, 0.19 µM	98.5	113	75.3
HPLM + 10% dialyzed FBS, 0.569 µM	95.5	113	89.6
HPLM + 10% dialyzed FBS, 1.71 µM	64.5	104	93.4
HPLM + 10% dialyzed FBS, 5.12 µM	77.8	86.4	85.2
HPLM + 10% dialyzed FBS, 15.4 µM	51.1	81.3	82.1
HPLM + 10% dialyzed FBS, 46.1 µM	54.7	77.2	80.2
RPMI 5 mM glucose + 10% FBS, 0.000781 µM	112	114	109
RPMI 5 mM glucose + 10% FBS, 0.00234 µM	111	117	94.2
RPMI 5 mM glucose + 10% FBS, 0.00702 µM	117	111	105
RPMI 5 mM glucose + 10% FBS, 0.0211 µM	104	111	114
RPMI 5 mM glucose + 10% FBS, 0.0632 µM	112	130	108
RPMI 5 mM glucose + 10% FBS, 0.19 µM	103	122	109
RPMI 5 mM glucose + 10% FBS, 0.569 µM	101	112	114
RPMI 5 mM glucose + 10% FBS, 1.71 µM	79.5	85.3	86.4
RPMI 5 mM glucose + 10% FBS, 5.12 µM	77.7	71	102
RPMI 5 mM glucose + 10% FBS, 15.4 µM	84.7	71.8	132
RPMI 5 mM glucose + 10% FBS, 46.1 µM	56.8	68.2	103
RPMI 5 mM glucose + 10% dialyzed FBS, 0.000781 µM	111	104	115
RPMI 5 mM glucose + 10% dialyzed FBS, 0.00234 µM	109	112	104
RPMI 5 mM glucose + 10% dialyzed FBS, 0.00702 µM	115	131	111
RPMI 5 mM glucose + 10% dialyzed FBS, 0.0211 µM	114	139	113
RPMI 5 mM glucose + 10% dialyzed FBS, 0.0632 µM	101	123	133
RPMI 5 mM glucose + 10% dialyzed FBS, 0.19 µM	97.4	100	112
RPMI 5 mM glucose + 10% dialyzed FBS, 0.569 µM	98.6	92.7	118
RPMI 5 mM glucose + 10% dialyzed FBS, 1.71 µM	88.9	89.6	107
RPMI 5 mM glucose + 10% dialyzed FBS, 5.12 µM	72.2	75.9	111
RPMI 5 mM glucose + 10% dialyzed FBS, 15.4 µM	67.1	62.4	108
RPMI 5 mM glucose + 10% dialyzed FBS, 46.1 µM	53.8	67.8	100

AUC of viability dose-response curve
Settings	HPLM + 10% dialyzed FBS	RPMI 5 mM glucose + 10% FBS	RPMI 5 mM glucose + 10% dialyzed FBS
NOMO1 [5]	379	407	401
P12-Ichikawa [6]	440	414	394

CC(COc1ccccc1)N(CCCl)Cc1ccccc1 (configuration not stated)
cell viability [%], SEM cells [3]
Settings	HPLM + 10% dialyzed FBS	RPMI 5 mM glucose + 10% FBS
0.000781 µM	89.3	101
0.00234 µM	102	123
0.00702 µM	121	127
0.0211 µM	110	120
0.0632 µM	116	112
0.19 µM	115	135
0.569 µM	104	131
1.71 µM	110	128
5.12 µM	123	148
15.4 µM	119	147
46.1 µM	89.4	115

AUC of viability dose-response curve
Settings	NOMO1 [5]	P12-Ichikawa [6]	SEM cells [4]
HPLM + 10% dialyzed FBS	304	367	465
RPMI 5 mM glucose + 10% FBS	280	372	451
RPMI 5 mM glucose + 10% dialyzed FBS	316	380	469
